Molecular target: T1, hTRPV3 (Homo sapiens, UniProt Q8NET8)
T1 construct: The commercially available plasmid with the full-length cDNA of hTRPV3 (791 aa) (NM_001258205.2); host or cells: HEK293T
T1 sequence (Q8NET8 1-791 isoform Q8NET8-2): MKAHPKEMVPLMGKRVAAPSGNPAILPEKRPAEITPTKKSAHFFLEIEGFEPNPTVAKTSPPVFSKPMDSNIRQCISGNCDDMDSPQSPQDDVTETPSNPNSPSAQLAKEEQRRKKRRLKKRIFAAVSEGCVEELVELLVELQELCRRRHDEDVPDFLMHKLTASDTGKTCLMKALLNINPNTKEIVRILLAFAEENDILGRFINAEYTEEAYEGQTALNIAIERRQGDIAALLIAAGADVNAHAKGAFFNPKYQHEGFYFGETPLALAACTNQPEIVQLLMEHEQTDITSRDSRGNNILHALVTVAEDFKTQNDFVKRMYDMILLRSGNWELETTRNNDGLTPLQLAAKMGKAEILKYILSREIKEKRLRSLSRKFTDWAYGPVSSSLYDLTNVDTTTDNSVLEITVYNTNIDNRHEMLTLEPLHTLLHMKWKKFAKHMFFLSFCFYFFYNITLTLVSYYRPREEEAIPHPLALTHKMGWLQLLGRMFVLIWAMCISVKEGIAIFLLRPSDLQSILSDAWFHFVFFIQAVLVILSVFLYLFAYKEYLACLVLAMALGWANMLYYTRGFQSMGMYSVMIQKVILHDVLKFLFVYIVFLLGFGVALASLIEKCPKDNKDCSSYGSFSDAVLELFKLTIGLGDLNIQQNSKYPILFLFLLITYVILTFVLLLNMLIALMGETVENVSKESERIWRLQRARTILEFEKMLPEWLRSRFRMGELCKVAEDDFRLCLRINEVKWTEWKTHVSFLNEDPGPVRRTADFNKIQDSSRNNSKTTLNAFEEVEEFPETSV
Assay: Whole-cell patch-clamp recording of hTRPV3 current in transfected HEK293T cells (2-APB induced)
Assay type: cell-based
Details: current induced by 300 μM 2-APB, compounds tested up to 10 μM, room temperature
Outline: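 IC50 comes from Hill fits, 0–100% bounds, of percent block of 2-APB-induced current, with compounds perfused at up to 10 μM. Currents elicited at +80/−80 mV (400-ms steps, 2-s interval, 0 mV hold), room temperature, symmetric NaCl/EDTA/HEPES pH 7.4 solutions. Cells: hTRPV3-transfected HEK293T, used 18 h after transfection.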

IC50 [nM]	Structure (SMILES)
1000 to 10000	CCC1(CC)Oc2cnccc2-c2nc(NC(=O)c3c(OC)ncnc3OC)sc21 [compound 107]
1000 to 10000	COc1ncnc(OC)c1C(=O)Nc1nc2c(s1)C1(CN(C(=O)OC(C)(C)C)C1)Oc1cnccc1-2 [compound 156, tert-butyl 2′-(4,6-dimethoxypyrimidine-5-carboxamido)spiro[azetidine-3,4′-thiazolo[4′,5′: 4,5]pyrano[2,3-c]pyridine]-1-carboxylate]
100 to 1000	COc1ncnc(OC)c1C(=O)Nc1nc2c(s1)C1(CN(C(=O)OC(C)C)C1)Oc1cc(C(F)(F)F)ccc1-2 [compound 115, isopropyl 2′-(4,6-dimethoxypyrimidine-5-carboxamido)-7′-(trifluoromethyl)spiro[azetidine-3,4′-chromeno[4,3-d]thiazole]-1-carboxylate]
< 100	COc1ncnc(OC)c1C(=O)Nc1nc2c(s1)C1(CN(C3CC3)C1)Oc1cc(C(F)(F)F)ccc1-2 [compound 149, N-(1-cyclopropyl-7′-(trifluoromethyl)spiro[azetidine-3,4′-chromeno[4,3-d]thiazol]-2′-yl)-4,6-dimethoxypyrimidine-5-carboxamide]
1000 to 10000	CCC1(CC)Oc2cc(C(F)(F)F)ccc2-c2nc(NC(=O)c3cc(Cl)nnc3OC)sc21 [compound 90, 6-chloro-N-(4,4-diethyl-7-(trifluoromethyl)-4H-chromeno[4,3-d]thiazol-2-yl)-3-methoxypyridazine-4-carboxamide]
1000 to 10000	CCC1(CC)Oc2cc(C(F)(F)F)ccc2-c2nc(NC(=O)c3c(Cl)ncnc3Cl)sc21 [compound 111, 4,6-dichloro-N-(4,4-diethyl-7-(trifluoromethyl)-4H-chromeno[4,3-d]thiazol-2-yl)pyrimidine-5-carboxamide]
100 to 1000	C=CCN1c2cc(C(F)(F)F)ccc2-c2nc(NC(=O)c3c(OC)ncnc3OC)sc2C1(C)C [compound 88, N-(5-allyl-4,4-dimethyl-7-(trifluoromethyl)-4,5-dihydrothiazolo[5,4-c]quinolin-2-yl)-4,6-dimethoxypyrimidine-5-carboxamide]
1000 to 10000	COc1ncnc(OC)c1C(=O)Nc1nc2c(s1)-c1ccc(C(F)(F)F)cc1OC21CCS(=O)(=O)CC1 [compound 141, N-(1′,1′-dioxido-7-(trifluoromethyl)-2′,3′,5′,6′-tetrahydrospiro[chromeno[3,4-d]thiazole-4,4′-thiopyran]-2-yl)-4,6-dimethoxypyrimidine-5-carboxamide]

Second part, the compound before the results:

Structure (SMILES)	IC50 [nM]
COc1ncnc(OC)c1C(=O)Nc1nc2c(s1)C1(CCC(c3ccc(C)cc3)CC1)Oc1cc(C(F)(F)F)ccc1-2 (stereo not shown) [compound 36, 4,6-dimethoxy-N-(4′-(p-tolyl)-7-(trifluoromethyl)spiro[chromeno[4,3-d]thiazole-4,1′-cyclohexan]-2-yl)pyrimidine-5-carboxamide]	100 to 1000
COc1ncnc(OC)c1C(=O)Nc1nc2c(s1)Cc1ccc(Cl)cc1-2 [compound 7, N-(5-chloro-8H-indeno[1,2-d]thiazol-2-yl)-4,6-dimethoxypyrimidine-5-carboxamide]	1000 to 10000
COc1ccc2c(c1)OCc1sc(NC(=O)c3c(OC)ncnc3OC)nc1-2 [compound 11, 4,6-dimethoxy-N-(7-methoxy-4H-chromeno[4,3-d]thiazol-2-yl)pyrimidine-5-carboxamide]	≥ 10000
CCC1(CC)Oc2cc3c(cc2-c2nc(NC(=O)c4c(OC)ncnc4OC)sc21)OCO3 [compound 51, N-(4,4-diethyl-4H-[1,3]dioxolo[4′,5′: 6,7]chromeno[4,3-d]thiazol-2-yl)-4,6-dimethoxypyrimidine-5-carboxamide]	≥ 10000
CCC1(CC)Oc2cc(C(F)(F)F)ccc2-c2nc(NC(=O)c3c(C)ncnc3C)sc21 [compound 52, N-(4,4-diethyl-7-(trifluoromethyl)-4H-chromeno[4,3-d]thiazol-2-yl)-4,6-dimethylpyrimidine-5-carboxamide]	1000 to 10000
COc1ncnc(OC)c1C(=O)Nc1nc2c(s1)COc1ccc(C)cc1-2 [compound 16, 4,6-dimethoxy-N-(8-methyl-4H-chromeno[4,3-d]thiazol-2-yl)pyrimidine-5-carboxamide]	≥ 10000
COc1ncnc(OC)c1C(=O)Nc1nc2c(s1)CCCc1ccccc1-2 [compound 4, N-(5,6-dihydro-4H-benzo[6,7]cyclohepta[1,2-d]thiazol-2-yl)-4,6-dimethoxypyrimidine-5-carboxamide]	≥ 10000
CCC1(CC)Oc2cc(C(C)(C)O)ccc2-c2nc(NC(=O)c3c(OC)ncnc3OC)sc21 [compound 61, N-(4,4-diethyl-7-(2-hydroxypropan-2-yl)-4H-chromeno[4,3-d]thiazol-2-yl)-4,6-dimethoxypyrimidine-5-carboxamide]	1000 to 10000
